Values of other authors in patent publication US20240009304A1, “USE OF NGF ANTIBODY IN CIPN PAIN” (Dartsbio Pharmaceuticals Ltd., priority 2020, published 2024).

Tests used:
CIPN pain = conditions: background statement; cited from earlier work
neuronal NE reuptake = conditions: preclinical studies, background; cited from earlier work
[1] = test system: dopaminergic receptor, adrenergic receptor, cholinergic receptor, histaminergic receptor, opioid receptor, glutamate receptor and GABA receptor; conditions: in vitro study, background; cited from earlier work
monoamine oxidase = conditions: background; cited from earlier work
neuronal 5-HT reuptake = conditions: preclinical studies, background; cited from earlier work
dopamine reuptake = conditions: preclinical studies, background; cited from earlier work

## CN(C)CCC=C1c2ccccc2CCc2ccccc21 [amitriptyline]
CIPN pain
  effect in the treatment of CIPN pain: do not seem to be more effective than placebo

## NCC1(CC(=O)O)CCCCC1 [gabapentin]
CIPN pain
  effect in the treatment of CIPN pain: do not seem to be more effective than placebo

## CC(C)C[C@H](CN)CC(=O)O [pregabalin]
CIPN pain
  effect in the treatment of CIPN pain: do not seem to be more effective than placebo

## CNCC[C@H](Oc1cccc2ccccc12)c1cccs1 [Duloxetine]
Neuronal NE reuptake
  neuronal NE reuptake inhibition: strong inhibitor
CIPN pain
  effect in the treatment of CIPN pain: proven to be effective
[1]
  affinity with receptors: no obvious affinity
Monoamine oxidase
  inhibition of monoamine oxidase: does not inhibit
Neuronal 5-HT reuptake
  neuronal 5-HT reuptake inhibition: strong inhibitor
Dopamine reuptake
  inhibitory effect on dopamine reuptake: relatively weak
